Experimental data from patent US20240368506A1, “Manufacturing a Non-Alcoholic Distilled Spirit and Functional Ingredient” (priority 2022, published 2024).

What was measured:
MAO A = biological target: T1, MAO A (Homo sapiens, UniProt P21397); experiment: MAO A inhibitory activity of Don Julio Añejo or 40% ethanol spiked with terpenes; type: biochemical; conditions: terpene at 0.5% (v/v) in tequila (40% ABV) and in 40% ethanol
T1 sequence (P21397 1-527): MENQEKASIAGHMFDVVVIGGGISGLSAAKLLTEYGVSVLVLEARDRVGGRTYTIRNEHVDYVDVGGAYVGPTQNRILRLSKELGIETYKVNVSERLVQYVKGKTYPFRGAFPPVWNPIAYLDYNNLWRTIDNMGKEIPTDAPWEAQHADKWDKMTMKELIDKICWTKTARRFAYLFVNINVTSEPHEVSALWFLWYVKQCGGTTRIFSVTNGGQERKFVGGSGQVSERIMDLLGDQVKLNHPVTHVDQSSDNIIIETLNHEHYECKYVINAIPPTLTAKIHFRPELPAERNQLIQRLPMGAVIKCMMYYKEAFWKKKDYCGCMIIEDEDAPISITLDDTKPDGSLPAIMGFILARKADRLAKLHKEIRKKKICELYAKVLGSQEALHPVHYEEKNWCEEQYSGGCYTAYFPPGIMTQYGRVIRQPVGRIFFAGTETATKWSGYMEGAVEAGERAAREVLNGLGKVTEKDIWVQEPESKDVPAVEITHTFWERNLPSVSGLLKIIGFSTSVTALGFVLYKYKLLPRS
Method: (§1) The effect terpenes on MAOI activity in tequila was evaluated in the experiment from Table 3. Terpenes were added to 40% ethanol and tequila (40% ABV) at 0.5%. (v/v) and assayed for MAO inhibitory activity.

MAO B = biological target: T2, MAO B (Homo sapiens, UniProt P27338); experiment: MAO B inhibitory activity of Don Julio Añejo or 40% ethanol spiked with terpenes; type: biochemical; conditions: terpene at 0.5% (v/v) in tequila (40% ABV) and in 40% ethanol
T2 sequence (P27338 1-520): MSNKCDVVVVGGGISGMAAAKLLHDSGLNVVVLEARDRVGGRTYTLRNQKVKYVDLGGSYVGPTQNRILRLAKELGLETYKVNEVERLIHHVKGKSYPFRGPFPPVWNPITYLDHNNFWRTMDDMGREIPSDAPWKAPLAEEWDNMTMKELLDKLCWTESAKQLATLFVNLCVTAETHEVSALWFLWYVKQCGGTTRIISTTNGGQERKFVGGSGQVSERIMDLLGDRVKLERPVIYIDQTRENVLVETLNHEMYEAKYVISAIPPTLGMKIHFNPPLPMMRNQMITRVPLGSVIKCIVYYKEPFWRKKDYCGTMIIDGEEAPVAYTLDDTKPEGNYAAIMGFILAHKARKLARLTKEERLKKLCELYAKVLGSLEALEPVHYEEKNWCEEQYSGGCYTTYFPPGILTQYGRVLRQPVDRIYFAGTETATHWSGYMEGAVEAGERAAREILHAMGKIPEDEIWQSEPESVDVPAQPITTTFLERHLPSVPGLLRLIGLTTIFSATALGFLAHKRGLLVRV
Method: as §1

Δ % Inhibition MAO A (DJA + terpene) − (ETOH + terpene) (MAO A) [%] | Δ % Inhibition MAO B (DJA + terpene) − (ETOH + terpene) (MAO B) [%] | Compound
4 | 9 | Geramol
9 | 20 | C=C(C)[C@@H]1CCC2=CCC[C@@H](C)[C@]2(C)C1 [valencene]
